# Measurements published in the OPERA property sets (Mansouri et al. 2018).
# Details: 20 °C
row,SMILES,solubility [nM]
1,Clc1ccc(-c2cc(Cl)c(Cl)c(Cl)c2Cl)c(Cl)c1,3.02
2,Clc1ccc(Cl)c(-c2c(Cl)ccc(Cl)c2Cl)c1,64.6
3,Clc1cc(Cl)c(-c2ccc(Cl)c(Cl)c2Cl)cc1Cl,4.16

# Same assay, conditions: 25 °C
row,SMILES,solubility [nM]
1,Clc1ccc(Cl)c(-c2c(Cl)cc(Cl)c(Cl)c2Cl)c1,9.77
2,Clc1cc(Cl)c(Cl)c(-c2ccccc2)c1Cl,56.2
3,Clc1cc(Cl)cc(-c2ccccc2Cl)c1,501
4,Clc1cc(Cl)c(-c2cc(Cl)c(Cl)c(Cl)c2)cc1Cl,6.17
5,Clc1cc(Cl)c(-c2c(Cl)c(Cl)c(Cl)c(Cl)c2Cl)c(Cl)c1,0.331
6,Clc1ccc(-c2c(Cl)c(Cl)c(Cl)c(Cl)c2Cl)c(Cl)c1,1.07
7,Clc1ccc(-c2c(Cl)cccc2Cl)c(Cl)c1Cl,166
8,Clc1ccc(-c2c(Cl)cccc2Cl)c(Cl)c1,224
9,Clc1cc(Cl)c(-c2cc(Cl)c(Cl)cc2Cl)c(Cl)c1,7.59
10,Clc1cc(-c2c(Cl)cc(Cl)c(Cl)c2Cl)c(Cl)c(Cl)c1Cl,0.38
11,Clc1cc(Cl)c(-c2c(Cl)c(Cl)c(Cl)c(Cl)c2Cl)c(Cl)c1Cl,0.0788
12,Clc1cc(-c2cc(Cl)c(Cl)c(Cl)c2Cl)cc(Cl)c1Cl,1.9
13,Clc1ccc(-c2c(Cl)c(Cl)cc(Cl)c2Cl)c(Cl)c1Cl,3.8
14,Clc1cc(Cl)c(-c2c(Cl)ccc(Cl)c2Cl)c(Cl)c1Cl,7.08
15,Clc1cccc(-c2c(Cl)cc(Cl)c(Cl)c2Cl)c1Cl,3.31
16,Clc1ccc(-c2cc(Cl)cc(Cl)c2Cl)cc1,170
17,Clc1cc(Cl)c(-c2c(Cl)c(Cl)cc(Cl)c2Cl)c(Cl)c1Cl,0.631
18,Clc1ccc(-c2ccccc2)c(Cl)c1Cl,661
19,Clc1cc(-c2c(Cl)ccc(Cl)c2Cl)c(Cl)c(Cl)c1Cl,2.57
20,Clc1cc(-c2c(Cl)cccc2Cl)c(Cl)c(Cl)c1Cl,7.41
21,Clc1cc(-c2c(Cl)c(Cl)cc(Cl)c2Cl)c(Cl)c(Cl)c1Cl,0.513
22,Clc1ccc(-c2c(Cl)cc(Cl)cc2Cl)c(Cl)c1,21.9
23,Clc1cccc(-c2cc(Cl)c(Cl)c(Cl)c2Cl)c1Cl,3.8
24,Clc1cc(Cl)c(-c2cc(Cl)ccc2Cl)c(Cl)c1,33.9
25,Clc1ccccc1-c1c(Cl)c(Cl)cc(Cl)c1Cl,39.8
26,Clc1ccc(-c2c(Cl)ccc(Cl)c2Cl)c(Cl)c1,67.7
27,Clc1cc(Cl)c(-c2cccc(Cl)c2Cl)c(Cl)c1,39.8
28,Clc1cc(Cl)c(-c2cc(Cl)c(Cl)c(Cl)c2Cl)c(Cl)c1,2.09

row,SMILES,solubility [nM]
1,Clc1cc(-c2c(Cl)c(Cl)cc(Cl)c2Cl)cc(Cl)c1Cl,0.794
2,Clc1cc(-c2cc(Cl)c(Cl)c(Cl)c2)cc(Cl)c1Cl,1.41
3,Clc1ccc(-c2c(Cl)cc(Cl)c(Cl)c2Cl)cc1,11.2
4,Clc1cc(Cl)c(Cl)c(-c2c(Cl)cc(Cl)c(Cl)c2Cl)c1,2.09
5,Clc1ccc(-c2ccccc2)cc1Cl,407
6,Clc1cc(Cl)c(-c2ccccc2Cl)c(Cl)c1,224
7,Clc1cccc(-c2c(Cl)cccc2Cl)c1Cl,501
8,Clc1cc(Cl)c(-c2c(Cl)c(Cl)c(Cl)c(Cl)c2Cl)cc1Cl,0.316
9,Clc1ccc(-c2cc(Cl)cc(Cl)c2Cl)c(Cl)c1,15.1
10,Clc1cc(Cl)c(-c2c(Cl)cc(Cl)c(Cl)c2Cl)c(Cl)c1Cl,0.794
11,Clc1ccc(-c2cc(Cl)c(Cl)cc2Cl)c(Cl)c1,11.2
12,Clc1ccc(Cl)c(-c2c(Cl)c(Cl)cc(Cl)c2Cl)c1Cl,11.5
13,Clc1cc(Cl)c(-c2c(Cl)c(Cl)cc(Cl)c2Cl)c(Cl)c1,3.24
14,Clc1cc(Cl)c(-c2ccc(Cl)c(Cl)c2)c(Cl)c1,12.3
15,Clc1cc(-c2c(Cl)ccc(Cl)c2Cl)cc(Cl)c1Cl,5.37
16,Clc1cccc(-c2cc(Cl)c(Cl)cc2Cl)c1,74.1
17,Clc1cc(Cl)cc(-c2c(Cl)c(Cl)c(Cl)c(Cl)c2Cl)c1,0.794
18,Clc1cc(-c2c(Cl)cc(Cl)c(Cl)c2Cl)cc(Cl)c1Cl,0.794
19,Clc1cc(Cl)cc(-c2c(Cl)c(Cl)cc(Cl)c2Cl)c1,5.38
20,Clc1cc(Cl)c(Cl)c(-c2cc(Cl)c(Cl)cc2Cl)c1,2.63
21,Clc1ccc(Cl)c(-c2c(Cl)c(Cl)c(Cl)c(Cl)c2Cl)c1Cl,0.794
22,Clc1ccc(-c2ccccc2Cl)c(Cl)c1,323
23,Clc1cccc(-c2ccc(Cl)c(Cl)c2Cl)c1,170
24,Clc1cc(Cl)cc(-c2c(Cl)ccc(Cl)c2Cl)c1,11.2
25,Clc1cccc(-c2c(Cl)c(Cl)cc(Cl)c2Cl)c1,17.4
26,Clc1ccc(-c2c(Cl)cccc2Cl)cc1Cl,95.5
27,Clc1cc(Cl)c(-c2ccc(Cl)c(Cl)c2Cl)c(Cl)c1,5.76
